Reference: ChEMBL document CHEMBL4665658, “Quinoline and thiazolopyridine allosteric inhibitors of MALT1” (Bioorg Med Chem Lett, 2019)

Assays:
[1] = system: OCI-Ly3; test: Antiproliferative activity against human OCILY3 cells by cell proliferation assay; assay type: functional, cell-based
[2] = target: Cathepsin D (Homo sapiens) (UniProt P07339); test: Inhibition of cathepsin D (unknown origin) at 10 uM
[3] = target: Cathepsin E (Homo sapiens) (UniProt P14091); test: Inhibition of cathepsin E (unknown origin) at 10 uM
Chain of Cathepsin E (Homo sapiens) (P14091 whole entry): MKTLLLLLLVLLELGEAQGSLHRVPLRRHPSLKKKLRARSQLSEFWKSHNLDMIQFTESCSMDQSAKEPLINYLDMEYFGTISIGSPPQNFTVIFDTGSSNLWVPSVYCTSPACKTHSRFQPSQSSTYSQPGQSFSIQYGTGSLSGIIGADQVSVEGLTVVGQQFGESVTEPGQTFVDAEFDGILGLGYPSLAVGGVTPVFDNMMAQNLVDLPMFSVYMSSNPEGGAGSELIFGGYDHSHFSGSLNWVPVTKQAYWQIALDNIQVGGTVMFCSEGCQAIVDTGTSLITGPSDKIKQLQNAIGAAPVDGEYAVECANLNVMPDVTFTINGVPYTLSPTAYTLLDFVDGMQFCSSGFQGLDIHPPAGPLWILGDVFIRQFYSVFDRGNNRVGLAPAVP

[4] = target: Prothrombin (Homo sapiens) (UniProt P00734); test: Inhibition of thrombin (unknown origin) at 10 uM
[5] = target: Coagulation factor X (Homo sapiens) (UniProt P00742); test: Inhibition of factor Xa (unknown origin) at 10 uM
Chain of Coagulation factor X (Homo sapiens) (P00742 41-179 limits assumed): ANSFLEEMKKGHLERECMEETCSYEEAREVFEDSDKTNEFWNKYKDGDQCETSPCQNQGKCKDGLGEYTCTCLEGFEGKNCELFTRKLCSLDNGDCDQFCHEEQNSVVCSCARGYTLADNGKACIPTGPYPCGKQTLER
Chain of Coagulation factor X (Homo sapiens) (P00742 235-488 limits assumed): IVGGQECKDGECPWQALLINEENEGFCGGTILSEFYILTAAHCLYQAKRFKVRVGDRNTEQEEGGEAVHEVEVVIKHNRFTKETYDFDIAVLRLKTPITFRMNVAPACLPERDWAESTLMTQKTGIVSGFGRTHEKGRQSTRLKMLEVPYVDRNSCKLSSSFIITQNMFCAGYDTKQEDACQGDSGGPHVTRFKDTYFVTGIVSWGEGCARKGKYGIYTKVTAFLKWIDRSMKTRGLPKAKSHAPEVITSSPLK

[6] = target: Cathepsin G (Homo sapiens) (UniProt P08311); test: Inhibition of cathepsin G (unknown origin) at 10 uM
Chain of Cathepsin G (Homo sapiens) (P08311 whole entry): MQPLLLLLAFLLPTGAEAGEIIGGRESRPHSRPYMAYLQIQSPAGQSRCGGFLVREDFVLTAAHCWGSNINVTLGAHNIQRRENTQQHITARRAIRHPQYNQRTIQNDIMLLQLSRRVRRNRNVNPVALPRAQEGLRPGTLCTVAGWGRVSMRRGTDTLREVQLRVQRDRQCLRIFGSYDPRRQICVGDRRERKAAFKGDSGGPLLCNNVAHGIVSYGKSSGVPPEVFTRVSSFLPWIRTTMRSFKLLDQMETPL

[7] = target: Kallikrein-1 (Homo sapiens) (UniProt P06870); test: Inhibition of KLK1 (unknown origin) at 10 uM
Chain of Kallikrein-1 (Homo sapiens) (P06870 25-262 limits assumed): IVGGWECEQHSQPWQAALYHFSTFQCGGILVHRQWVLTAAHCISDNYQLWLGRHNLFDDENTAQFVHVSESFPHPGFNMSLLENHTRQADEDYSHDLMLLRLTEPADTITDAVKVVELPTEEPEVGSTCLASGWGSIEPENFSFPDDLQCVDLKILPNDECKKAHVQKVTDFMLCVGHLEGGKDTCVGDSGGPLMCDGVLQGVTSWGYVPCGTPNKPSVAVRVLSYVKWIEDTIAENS

[8] = target: Kallikrein-2 (Homo sapiens) (UniProt P20151); test: Inhibition of KLK2 (unknown origin) at 10 uM
Chain of Kallikrein-2 (Homo sapiens) (P20151 whole entry): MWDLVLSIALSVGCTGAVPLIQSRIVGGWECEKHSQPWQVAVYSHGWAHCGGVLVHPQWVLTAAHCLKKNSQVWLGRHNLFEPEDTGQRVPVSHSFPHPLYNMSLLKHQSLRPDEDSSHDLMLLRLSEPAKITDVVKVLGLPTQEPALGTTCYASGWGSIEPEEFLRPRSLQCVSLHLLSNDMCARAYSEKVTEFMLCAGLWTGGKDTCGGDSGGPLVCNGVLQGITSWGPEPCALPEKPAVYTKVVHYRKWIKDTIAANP

[9] = organism: Homo sapiens; test: Inhibition of tryptase (unknown origin) at 10 uM
[10] = target: Trypsin (Homo sapiens) (UniProt P07477+P07478+P35030); test: Inhibition of trypsin (unknown origin) at 10 uM; assay type: protein assay
[11] = target: Urokinase-type plasminogen activator (Homo sapiens) (UniProt P00749); test: Inhibition of urokinase (unknown origin) at 10 uM
[12] = target: Cathepsin B (Homo sapiens) (UniProt P07858); test: Inhibition of cathepsin B (unknown origin) at 10 uM
[13] = target: T1, Pro-cathepsin H (Homo sapiens) (UniProt P09668); test: Inhibition of cathepsin H (unknown origin) at 10 uM
T1 sequence (whole entry): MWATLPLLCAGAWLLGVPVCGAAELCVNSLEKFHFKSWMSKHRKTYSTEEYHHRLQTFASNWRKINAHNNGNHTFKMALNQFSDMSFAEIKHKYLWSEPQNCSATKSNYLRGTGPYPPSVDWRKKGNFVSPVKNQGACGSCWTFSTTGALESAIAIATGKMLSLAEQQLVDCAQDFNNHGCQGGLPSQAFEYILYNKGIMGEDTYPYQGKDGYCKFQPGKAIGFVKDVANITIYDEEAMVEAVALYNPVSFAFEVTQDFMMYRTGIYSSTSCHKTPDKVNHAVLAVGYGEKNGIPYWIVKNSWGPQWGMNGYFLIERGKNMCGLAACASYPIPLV

[14] = target: T2, Cathepsin K (Homo sapiens) (UniProt P43235); test: Inhibition of cathepsin K (unknown origin) at 10 uM
T2 sequence (whole entry): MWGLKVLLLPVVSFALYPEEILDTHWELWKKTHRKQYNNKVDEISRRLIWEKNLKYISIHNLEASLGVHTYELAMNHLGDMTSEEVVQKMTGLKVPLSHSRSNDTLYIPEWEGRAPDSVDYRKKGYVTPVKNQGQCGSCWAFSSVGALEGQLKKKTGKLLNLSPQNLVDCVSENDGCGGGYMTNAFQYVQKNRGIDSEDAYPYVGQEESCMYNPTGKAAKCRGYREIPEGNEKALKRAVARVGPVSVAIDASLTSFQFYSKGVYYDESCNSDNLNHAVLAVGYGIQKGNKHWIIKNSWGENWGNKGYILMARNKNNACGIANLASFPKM

[15] = target: Procathepsin L (Homo sapiens) (UniProt P07711); test: Inhibition of cathepsin L (unknown origin) at 10 uM
Chain of Procathepsin L (Homo sapiens) (P07711 114-333 limits assumed): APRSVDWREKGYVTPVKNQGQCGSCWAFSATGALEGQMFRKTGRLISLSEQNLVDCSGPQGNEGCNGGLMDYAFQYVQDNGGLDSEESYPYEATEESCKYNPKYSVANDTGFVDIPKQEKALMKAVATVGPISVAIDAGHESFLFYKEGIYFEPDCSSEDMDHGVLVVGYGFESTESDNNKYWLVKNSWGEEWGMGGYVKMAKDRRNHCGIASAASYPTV

[16] = target: Cathepsin S (Homo sapiens) (UniProt P25774); test: Inhibition of cathepsin S (unknown origin) at 10 uM
Chain of Cathepsin S (Homo sapiens) (P25774 115-331 limits assumed): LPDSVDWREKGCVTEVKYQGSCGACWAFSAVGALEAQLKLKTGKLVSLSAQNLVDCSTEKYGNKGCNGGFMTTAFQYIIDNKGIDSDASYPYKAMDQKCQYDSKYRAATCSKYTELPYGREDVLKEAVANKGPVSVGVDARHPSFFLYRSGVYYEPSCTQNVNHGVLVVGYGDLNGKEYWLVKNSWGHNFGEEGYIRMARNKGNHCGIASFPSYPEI

[17] = target: Cathepsin L2 (Homo sapiens) (UniProt O60911); test: Inhibition of cathepsin V (unknown origin) at 10 uM
Chain of Cathepsin L2 (Homo sapiens) (O60911 whole entry): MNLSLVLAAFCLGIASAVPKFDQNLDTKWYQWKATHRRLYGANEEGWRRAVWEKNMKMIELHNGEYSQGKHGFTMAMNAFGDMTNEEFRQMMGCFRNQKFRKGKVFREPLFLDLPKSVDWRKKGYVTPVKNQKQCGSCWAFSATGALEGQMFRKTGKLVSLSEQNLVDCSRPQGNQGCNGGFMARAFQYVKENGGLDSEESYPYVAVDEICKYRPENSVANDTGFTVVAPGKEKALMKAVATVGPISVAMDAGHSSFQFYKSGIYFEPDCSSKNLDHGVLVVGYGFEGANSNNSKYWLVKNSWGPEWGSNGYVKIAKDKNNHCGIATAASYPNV

[18] = target: Caspase-1 (Homo sapiens) (UniProt P29466); test: Inhibition of Caspase 1 (unknown origin) at 10 uM
Chain of Caspase-1 (Homo sapiens) (P29466 120-297 limits assumed): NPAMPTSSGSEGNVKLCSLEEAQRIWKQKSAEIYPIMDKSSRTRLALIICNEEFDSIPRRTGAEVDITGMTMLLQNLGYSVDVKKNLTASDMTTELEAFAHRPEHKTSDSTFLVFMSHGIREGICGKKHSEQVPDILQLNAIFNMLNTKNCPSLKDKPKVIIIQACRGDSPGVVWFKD
Chain of Caspase-1 (Homo sapiens) (P29466 317-404 limits assumed): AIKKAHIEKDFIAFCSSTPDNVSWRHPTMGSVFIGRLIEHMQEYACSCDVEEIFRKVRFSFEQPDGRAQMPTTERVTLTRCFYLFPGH

[19] = target: Caspase-2 (Homo sapiens) (UniProt P42575); test: Inhibition of Caspase 2 (unknown origin) at 10 uM
[20] = target: Caspase-3 (Homo sapiens) (UniProt P42574); test: Inhibition of Caspase 3 (unknown origin) at 10 uM
Chain of Caspase-3 (Homo sapiens) (P42574 29-175 limits assumed): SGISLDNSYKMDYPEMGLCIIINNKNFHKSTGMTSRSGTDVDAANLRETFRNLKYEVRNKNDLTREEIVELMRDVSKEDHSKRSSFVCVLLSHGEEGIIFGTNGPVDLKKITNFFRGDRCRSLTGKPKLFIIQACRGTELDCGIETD
Chain of Caspase-3 (Homo sapiens) (P42574 176-277 limits assumed): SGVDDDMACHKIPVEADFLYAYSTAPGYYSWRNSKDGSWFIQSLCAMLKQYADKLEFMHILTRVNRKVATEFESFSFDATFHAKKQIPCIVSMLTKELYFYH

[21] = target: T3, Caspase-4 (Homo sapiens) (UniProt P49662); test: Inhibition of Caspase 4 (unknown origin) at 10 uM
T3 sequence (whole entry): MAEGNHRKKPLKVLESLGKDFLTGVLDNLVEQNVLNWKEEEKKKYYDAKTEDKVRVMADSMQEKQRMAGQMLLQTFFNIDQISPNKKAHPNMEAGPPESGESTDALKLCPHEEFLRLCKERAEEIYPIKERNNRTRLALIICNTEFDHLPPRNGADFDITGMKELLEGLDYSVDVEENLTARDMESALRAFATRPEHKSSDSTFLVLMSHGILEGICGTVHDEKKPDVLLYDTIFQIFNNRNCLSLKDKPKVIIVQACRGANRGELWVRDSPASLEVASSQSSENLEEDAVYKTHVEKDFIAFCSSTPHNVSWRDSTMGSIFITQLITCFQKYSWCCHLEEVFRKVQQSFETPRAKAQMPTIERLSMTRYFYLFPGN

[22] = target: Caspase-5 (Homo sapiens) (UniProt P51878); test: Inhibition of Caspase 5 (unknown origin) at 10 uM
Chain of Caspase-5 (Homo sapiens) (P51878 137-327 limits assumed): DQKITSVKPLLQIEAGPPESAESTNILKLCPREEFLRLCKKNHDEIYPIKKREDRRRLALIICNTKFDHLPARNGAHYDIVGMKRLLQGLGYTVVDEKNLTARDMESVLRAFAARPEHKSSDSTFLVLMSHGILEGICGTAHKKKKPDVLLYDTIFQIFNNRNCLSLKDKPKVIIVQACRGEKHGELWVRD
Chain of Caspase-5 (Homo sapiens) (P51878 347-434 limits assumed): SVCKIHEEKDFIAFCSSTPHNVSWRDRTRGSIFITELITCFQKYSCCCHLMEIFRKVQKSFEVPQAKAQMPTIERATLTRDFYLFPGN

[23] = target: T4, Caspase-6 (Homo sapiens) (UniProt P55212); test: Inhibition of Caspase 6 (unknown origin) at 10 uM
T4 sequence (whole entry): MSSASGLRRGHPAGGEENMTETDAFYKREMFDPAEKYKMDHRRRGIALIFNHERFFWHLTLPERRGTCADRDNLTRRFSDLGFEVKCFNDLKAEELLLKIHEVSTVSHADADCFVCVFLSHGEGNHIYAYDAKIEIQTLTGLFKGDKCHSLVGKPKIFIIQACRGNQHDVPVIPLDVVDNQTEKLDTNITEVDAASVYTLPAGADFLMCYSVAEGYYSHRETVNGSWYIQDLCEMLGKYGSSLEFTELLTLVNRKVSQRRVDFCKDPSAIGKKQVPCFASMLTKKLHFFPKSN

[24] = target: Caspase-7 (Homo sapiens) (UniProt P55210); test: Inhibition of Caspase 7 (unknown origin) at 10 uM
Chain of Caspase-7 (Homo sapiens) (P55210 24-198 limits assumed): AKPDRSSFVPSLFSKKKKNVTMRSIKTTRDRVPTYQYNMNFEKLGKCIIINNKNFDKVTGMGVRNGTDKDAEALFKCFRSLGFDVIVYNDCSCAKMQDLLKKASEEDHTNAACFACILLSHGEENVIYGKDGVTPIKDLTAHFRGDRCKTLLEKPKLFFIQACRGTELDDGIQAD
Chain of Caspase-7 (Homo sapiens) (P55210 207-303 limits assumed): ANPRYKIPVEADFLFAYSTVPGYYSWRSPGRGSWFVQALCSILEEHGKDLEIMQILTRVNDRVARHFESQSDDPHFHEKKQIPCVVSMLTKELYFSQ

[25] = target: Caspase-8 (Homo sapiens) (UniProt Q14790); test: Inhibition of Caspase 8 (unknown origin) at 10 uM
Chain of Caspase-8 (Homo sapiens) (Q14790 217-374 limits assumed): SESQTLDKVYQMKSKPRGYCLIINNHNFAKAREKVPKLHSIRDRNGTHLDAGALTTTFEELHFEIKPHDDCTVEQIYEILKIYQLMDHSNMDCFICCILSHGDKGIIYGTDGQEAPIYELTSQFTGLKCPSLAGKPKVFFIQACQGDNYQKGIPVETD
Chain of Caspase-8 (Homo sapiens) (Q14790 385-479 limits assumed): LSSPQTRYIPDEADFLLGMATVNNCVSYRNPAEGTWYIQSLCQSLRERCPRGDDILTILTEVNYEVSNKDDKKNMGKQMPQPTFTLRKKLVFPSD

[26] = target: Caspase-9 (Homo sapiens) (UniProt P55211); test: Inhibition of Caspase 9 (unknown origin) at 10 uM
Chain of Caspase-9 (Homo sapiens) (P55211 1-315 limits assumed): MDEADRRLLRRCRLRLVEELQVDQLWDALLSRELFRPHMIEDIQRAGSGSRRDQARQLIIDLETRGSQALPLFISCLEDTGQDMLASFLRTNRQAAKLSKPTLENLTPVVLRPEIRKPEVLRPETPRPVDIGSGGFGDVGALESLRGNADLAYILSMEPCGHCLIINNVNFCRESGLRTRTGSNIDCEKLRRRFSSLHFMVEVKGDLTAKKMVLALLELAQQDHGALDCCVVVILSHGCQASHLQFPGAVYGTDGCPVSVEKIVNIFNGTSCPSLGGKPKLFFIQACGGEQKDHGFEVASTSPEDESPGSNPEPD
Chain of Caspase-9 (Homo sapiens) (P55211 331-416 limits assumed): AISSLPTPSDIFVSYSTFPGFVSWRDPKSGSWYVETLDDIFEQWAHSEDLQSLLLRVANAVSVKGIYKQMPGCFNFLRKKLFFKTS

[27] = target: Caspase-10 (Homo sapiens) (UniProt Q92851); test: Inhibition of Caspase 10 (unknown origin) at 10 uM
Chain of Caspase-10 (Homo sapiens) (Q92851 220-415 limits assumed): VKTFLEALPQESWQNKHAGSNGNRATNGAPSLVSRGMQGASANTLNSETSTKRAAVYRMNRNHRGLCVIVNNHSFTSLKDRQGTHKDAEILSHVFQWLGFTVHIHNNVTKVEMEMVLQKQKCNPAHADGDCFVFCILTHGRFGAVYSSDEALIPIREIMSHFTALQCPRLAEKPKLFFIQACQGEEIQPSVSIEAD
Chain of Caspase-10 (Homo sapiens) (Q92851 416-521 limits assumed): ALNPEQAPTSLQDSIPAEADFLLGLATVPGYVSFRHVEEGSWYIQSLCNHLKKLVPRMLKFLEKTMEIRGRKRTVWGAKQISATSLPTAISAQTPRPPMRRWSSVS

[28] = organism: Homo sapiens; test: Inhibition of Calpain (unknown origin) at 10 uM
[29] = target: T5, Legumain (Homo sapiens) (UniProt Q99538); test: Inhibition of Legumain (unknown origin) at 10 uM
T5 sequence (whole entry): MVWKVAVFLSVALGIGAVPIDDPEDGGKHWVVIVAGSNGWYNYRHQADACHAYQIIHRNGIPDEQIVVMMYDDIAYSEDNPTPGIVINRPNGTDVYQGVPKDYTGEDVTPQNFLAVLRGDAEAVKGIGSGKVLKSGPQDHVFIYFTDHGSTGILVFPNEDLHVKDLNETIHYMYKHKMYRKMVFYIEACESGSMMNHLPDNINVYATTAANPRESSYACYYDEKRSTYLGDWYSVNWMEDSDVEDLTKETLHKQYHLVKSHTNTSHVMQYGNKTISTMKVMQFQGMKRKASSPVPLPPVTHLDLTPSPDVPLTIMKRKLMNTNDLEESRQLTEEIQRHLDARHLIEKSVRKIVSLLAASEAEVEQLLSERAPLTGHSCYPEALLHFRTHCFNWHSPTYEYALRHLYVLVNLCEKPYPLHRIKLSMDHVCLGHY

[30] = Metabolic stability in human microsome assessed as half life; assay type: ADME; parameters: dose or concentration left out as unconfirmed; details: microsomes, read-out: Stabilty
[31] = Aqueous solubility of the compound at pH 7; assay type: physicochemical; details: aqueous medium
[32] = Metabolic stability in mouse microsome assessed as half life; assay type: ADME; parameters: dose or concentration left out as unconfirmed; details: microsomes, read-out: Stabilty
[33] = AUC (0 to infinity) in mouse at 1 mg/kg, iv or 5 mg/kg, po; assay type: ADME, organism-based; parameters: dose 5 mg/kg; details: in vivo
[34] = Plasma protein binding in mouse assessed as unbound fraction; assay type: ADME, cell-free; parameters: dose or concentration left out as unconfirmed; details: read-out: PPB
[35] = Clearance in mouse at 1 mg/kg, iv; assay type: ADME, organism-based; details: in vivo
[36] = Half life in mouse at 1 mg/kg, iv or 5 mg/kg, po; assay type: ADME, organism-based; details: in vivo
[37] = Oral bioavailability in mouse at 5 mg/kg; assay type: ADME, organism-based; details: in vivo
[38] = Plasma protein binding in human assessed as unbound fraction; assay type: ADME, cell-free; details: read-out: PPB

Row | Compound | EC50 [1] [µM] | inhibition [4] [%] | inhibition [7] [%] | inhibition [8] [%] | inhibition [9] [%] | inhibition [10] [%] | inhibition [11] [%] | inhibition [12] [%] | inhibition [13] [%] | inhibition [14] [%] | inhibition [15] [%] | inhibition [16] [%] | inhibition [20] [%] | inhibition [21] [%] | inhibition [23] [%] | inhibition [25] [%] | inhibition [26] [%] | inhibition [27] [%] | inhibition [28] [%] | inhibition [29] [%] | further results
1 | CO[C@@H](C)c1c(NC(=O)Nc2cnc(-n3nccn3)c(Cl)c2)cnc2cc(Cl)nn12 | 0.12 | 98.7 | 99.7 | 94.8 | 99.4 | 100 | 108 | 99.9 | 98.8 | 102 | 99.7 | 100 | 99.9 | 110 | 88.1 | 99.7 | 89.2 | 89.9 | 98.8 | 88.4 | inhibition [2]: 99.8%; inhibition [3]: 100%; inhibition [5]: 99.8%; inhibition [6]: 92.5%; inhibition [17]: 99%; inhibition [18]: 99.7%; inhibition [19]: 87.3%; inhibition [22]: 92.6%; inhibition [24]: 98.1%
2 | CCOC(C)c1c(NC(=O)Nc2cnc(-n3nccn3)c(Cl)c2)cnc2sc(C)nc12 (stereo not drawn) | 0.36 | 18.8 | -9 | -2.6 | 2 | 1.9 | 22 | 1 | 14.1 | 11.8 | 21.9 | 15.7 | 1 | 9 | -3.9 | 10.8 | 17.5 | -5.2 | -9.4 | -4.2 | half-life [30]: 0.717 h; solubility [31]: < 4 µM; half-life [32]: 2.12 h; AUC(0-inf) [33]: 10100 ng·h/mL; fraction unbound [34]: 0.022; clearance [35]: 1.6 mL/min/kg; half-life [36]: 3.2 h; bioavailability [37]: 19%; fraction unbound [38]: 0.025
